# From ChEMBL document CHEMBL4706599, “Discovery of novel quinazoline derivatives as potent PI3Kδ inhibitors with high selectivity” (Eur J Med Chem, 2020)
# How the values were obtained:
# [1] = molecular target: T1, Phosphatidylinositol 4,5-bisphosphate 3-kinase catalytic subunit delta isoform (Homo sapiens) (UniProt O00329); experiment: Inhibition of PI3Kdelta (unknown origin) at 200 nM by ADP-Glo kinase assay relative to control
# T1 sequence (whole entry): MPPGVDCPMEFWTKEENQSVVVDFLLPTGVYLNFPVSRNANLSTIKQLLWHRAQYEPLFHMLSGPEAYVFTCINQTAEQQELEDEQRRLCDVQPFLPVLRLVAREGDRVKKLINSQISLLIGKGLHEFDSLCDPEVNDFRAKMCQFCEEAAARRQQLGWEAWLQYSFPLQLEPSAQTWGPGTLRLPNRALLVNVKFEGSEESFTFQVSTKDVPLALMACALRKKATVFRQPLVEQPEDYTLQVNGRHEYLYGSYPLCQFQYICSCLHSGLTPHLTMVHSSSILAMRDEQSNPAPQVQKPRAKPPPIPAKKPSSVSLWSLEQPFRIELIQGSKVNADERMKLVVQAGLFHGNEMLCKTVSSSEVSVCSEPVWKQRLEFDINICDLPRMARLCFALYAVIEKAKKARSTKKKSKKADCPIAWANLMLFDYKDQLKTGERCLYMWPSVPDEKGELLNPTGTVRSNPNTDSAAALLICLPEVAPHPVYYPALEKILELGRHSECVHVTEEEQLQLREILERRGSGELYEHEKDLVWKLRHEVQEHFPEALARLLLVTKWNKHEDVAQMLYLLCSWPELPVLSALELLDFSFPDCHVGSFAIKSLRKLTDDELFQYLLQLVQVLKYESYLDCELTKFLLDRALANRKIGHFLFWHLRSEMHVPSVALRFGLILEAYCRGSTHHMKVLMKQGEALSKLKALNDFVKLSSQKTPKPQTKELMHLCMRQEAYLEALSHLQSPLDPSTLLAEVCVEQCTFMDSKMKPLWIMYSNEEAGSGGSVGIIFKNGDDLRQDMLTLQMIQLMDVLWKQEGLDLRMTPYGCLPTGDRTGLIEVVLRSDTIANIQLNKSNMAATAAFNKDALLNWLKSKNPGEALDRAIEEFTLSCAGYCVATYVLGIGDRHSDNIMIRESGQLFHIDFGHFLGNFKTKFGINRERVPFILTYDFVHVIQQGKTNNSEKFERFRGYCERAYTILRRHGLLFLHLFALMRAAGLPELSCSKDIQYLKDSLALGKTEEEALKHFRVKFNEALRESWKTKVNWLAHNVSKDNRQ
# Ramos = experiment: Antiproliferative activity against human Ramos cells assessed as inhibition of cell growth after 48 hrs by MTT assay; assay type: functional, cell-based
# Raji [2] = experiment: Antiproliferative activity against human Raji cells assessed as inhibition of cell growth after 48 hrs by MTT assay; assay type: functional, cell-based
# [3] = molecular target: T2, Phosphatidylinositol 4,5-bisphosphate 3-kinase catalytic subunit delta isoform (Homo sapiens, UniProt O00329); experiment: Inhibition of PI3Kdelta (unknown origin) by ADP-Glo kinase assay
# T2 sequence (O00329 whole entry): T1 sequence (whole entry)
# Raji [4] = experiment: Induction of apoptosis in human Raji cells assessed as late apoptotic cells at 5 uM measured after 24 hrs by Annexin V-FITC/PI staining based flow cytometry (reference value: 2.11 %); assay type: functional
# [5] = molecular target: Phosphatidylinositol 4,5-bisphosphate 3-kinase catalytic subunit gamma isoform (Homo sapiens, UniProt P48736); experiment: Inhibition of PI3Kgamma (unknown origin)
# Homo sapiens [6] = organism: Homo sapiens; experiment: Selectivity index, ratio of IC50 for PI3Kbeta (unknown origin) to IC50 for PI3Kdelta (unknown origin)
# Homo sapiens [7] = organism: Homo sapiens; experiment: Selectivity index, ratio of IC50 for PI3Kalpha (unknown origin) to IC50 for PI3Kdelta (unknown origin)
# Raji [8] = experiment: Antiproliferative activity against human Raji cells assessed as reduction in cell viability at 10 uM after 24 hrs by MTT assay; assay type: functional
# Raji [9] = experiment: Inhibition of PI3K/Akt signalling pathway in human Raji cells assessed as reduction in Akt phosphorylation at Ser473 residue after 24 hrs by Western blot analysis; assay type: cell-based; details: dose 1-1000 nM
# Raji [10] = experiment: Antiproliferative activity against human Raji cells assessed as reduction in cell viability after 24 hrs by MTT assay; assay type: functional, cell-based; details: dose 0.2-15 µM
# [11] = molecular target: Phosphatidylinositol 4,5-bisphosphate 3-kinase catalytic subunit alpha isoform (Homo sapiens, UniProt P42336); experiment: Inhibition of PI3Kalpha (unknown origin)
# [12] = Metabolic stability in human liver microsomes assessed as compound remaining at 1 uM measured up to 45 mins in presence of NADPH by LC/MS analysis; assay type: ADME, Microsome; details: 0.75 h
# Homo sapiens [13] = organism: Homo sapiens; experiment: Selectivity index, ratio of IC50 for PI3Kgamma (unknown origin) to IC50 for PI3Kdelta (unknown origin)
# Raji [14] = experiment: Antiproliferative activity against human Raji cells assessed as reduction in cell viability at 10 uM by MTT assay; assay type: functional, cell-based; details: TDE = time-dependent effect
# [15] = Metabolic stability in rat liver microsomes assessed as compound remaining at 1 uM measured up to 45 mins in presence of NADPH by LC/MS analysis; assay type: ADME, Microsome; details: 0.75 h
# [16] = molecular target: Phosphatidylinositol 4,5-bisphosphate 3-kinase catalytic subunit beta isoform (Homo sapiens, UniProt P42338); experiment: Inhibition of PI3Kbeta (unknown origin)
# Chain of Phosphatidylinositol 4,5-bisphosphate 3-kinase catalytic subunit beta isoform (P42338 whole entry, canonical isoform): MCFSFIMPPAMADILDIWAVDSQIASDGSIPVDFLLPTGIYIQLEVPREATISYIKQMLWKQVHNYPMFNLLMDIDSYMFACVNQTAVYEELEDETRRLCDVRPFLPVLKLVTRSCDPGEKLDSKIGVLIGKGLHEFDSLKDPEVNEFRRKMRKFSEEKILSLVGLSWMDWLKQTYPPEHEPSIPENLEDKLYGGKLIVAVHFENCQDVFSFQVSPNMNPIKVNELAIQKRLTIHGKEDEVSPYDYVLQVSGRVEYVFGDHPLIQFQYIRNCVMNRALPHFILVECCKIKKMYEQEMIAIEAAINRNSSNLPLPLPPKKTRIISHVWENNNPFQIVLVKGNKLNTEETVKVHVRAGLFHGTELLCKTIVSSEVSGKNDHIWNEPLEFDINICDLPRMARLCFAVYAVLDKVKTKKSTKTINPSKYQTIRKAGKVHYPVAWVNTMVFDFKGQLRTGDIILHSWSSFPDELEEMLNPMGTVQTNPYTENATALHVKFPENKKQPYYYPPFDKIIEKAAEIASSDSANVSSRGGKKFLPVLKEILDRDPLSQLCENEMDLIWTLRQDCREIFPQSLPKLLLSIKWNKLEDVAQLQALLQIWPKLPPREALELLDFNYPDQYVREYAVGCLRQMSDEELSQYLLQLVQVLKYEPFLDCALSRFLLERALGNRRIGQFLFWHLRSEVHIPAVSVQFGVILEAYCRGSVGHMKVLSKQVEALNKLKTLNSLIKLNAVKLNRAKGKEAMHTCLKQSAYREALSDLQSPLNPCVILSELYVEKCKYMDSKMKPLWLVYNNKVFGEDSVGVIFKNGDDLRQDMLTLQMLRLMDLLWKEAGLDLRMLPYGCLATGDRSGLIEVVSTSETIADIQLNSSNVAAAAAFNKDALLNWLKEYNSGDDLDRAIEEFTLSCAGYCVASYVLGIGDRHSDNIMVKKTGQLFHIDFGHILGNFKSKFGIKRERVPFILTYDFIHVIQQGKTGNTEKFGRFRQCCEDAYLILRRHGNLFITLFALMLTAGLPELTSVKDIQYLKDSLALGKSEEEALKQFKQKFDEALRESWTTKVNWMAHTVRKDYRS
# Chain of Phosphatidylinositol 4,5-bisphosphate 3-kinase catalytic subunit gamma isoform (P48736 whole entry, canonical isoform): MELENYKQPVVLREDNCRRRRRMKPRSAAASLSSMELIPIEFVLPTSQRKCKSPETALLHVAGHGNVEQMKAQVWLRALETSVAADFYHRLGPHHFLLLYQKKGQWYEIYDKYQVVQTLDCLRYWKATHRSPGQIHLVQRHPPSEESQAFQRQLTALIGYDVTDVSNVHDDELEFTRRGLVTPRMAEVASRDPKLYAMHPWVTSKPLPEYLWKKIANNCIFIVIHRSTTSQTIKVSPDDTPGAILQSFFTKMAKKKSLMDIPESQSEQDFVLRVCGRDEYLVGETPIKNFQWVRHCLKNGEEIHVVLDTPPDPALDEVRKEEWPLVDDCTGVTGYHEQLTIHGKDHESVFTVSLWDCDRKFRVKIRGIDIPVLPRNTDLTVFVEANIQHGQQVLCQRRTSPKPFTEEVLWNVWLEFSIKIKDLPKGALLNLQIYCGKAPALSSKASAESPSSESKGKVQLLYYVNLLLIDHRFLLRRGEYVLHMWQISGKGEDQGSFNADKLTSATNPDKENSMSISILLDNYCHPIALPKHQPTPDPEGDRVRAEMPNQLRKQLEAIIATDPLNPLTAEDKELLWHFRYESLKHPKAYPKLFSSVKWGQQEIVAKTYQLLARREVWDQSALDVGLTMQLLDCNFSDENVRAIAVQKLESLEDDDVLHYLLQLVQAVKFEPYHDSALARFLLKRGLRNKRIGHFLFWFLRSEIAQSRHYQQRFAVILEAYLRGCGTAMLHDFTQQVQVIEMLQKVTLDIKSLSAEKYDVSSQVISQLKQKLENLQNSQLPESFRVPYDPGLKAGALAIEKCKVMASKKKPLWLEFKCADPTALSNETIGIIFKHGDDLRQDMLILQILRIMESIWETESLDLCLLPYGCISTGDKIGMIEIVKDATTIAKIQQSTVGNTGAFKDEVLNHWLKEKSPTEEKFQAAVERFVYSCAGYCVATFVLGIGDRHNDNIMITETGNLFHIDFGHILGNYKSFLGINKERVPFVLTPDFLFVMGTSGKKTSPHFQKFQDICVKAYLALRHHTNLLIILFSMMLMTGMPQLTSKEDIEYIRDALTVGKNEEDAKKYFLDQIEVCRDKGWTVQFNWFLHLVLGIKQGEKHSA
# Chain of Phosphatidylinositol 4,5-bisphosphate 3-kinase catalytic subunit alpha isoform (P42336 whole entry, canonical isoform): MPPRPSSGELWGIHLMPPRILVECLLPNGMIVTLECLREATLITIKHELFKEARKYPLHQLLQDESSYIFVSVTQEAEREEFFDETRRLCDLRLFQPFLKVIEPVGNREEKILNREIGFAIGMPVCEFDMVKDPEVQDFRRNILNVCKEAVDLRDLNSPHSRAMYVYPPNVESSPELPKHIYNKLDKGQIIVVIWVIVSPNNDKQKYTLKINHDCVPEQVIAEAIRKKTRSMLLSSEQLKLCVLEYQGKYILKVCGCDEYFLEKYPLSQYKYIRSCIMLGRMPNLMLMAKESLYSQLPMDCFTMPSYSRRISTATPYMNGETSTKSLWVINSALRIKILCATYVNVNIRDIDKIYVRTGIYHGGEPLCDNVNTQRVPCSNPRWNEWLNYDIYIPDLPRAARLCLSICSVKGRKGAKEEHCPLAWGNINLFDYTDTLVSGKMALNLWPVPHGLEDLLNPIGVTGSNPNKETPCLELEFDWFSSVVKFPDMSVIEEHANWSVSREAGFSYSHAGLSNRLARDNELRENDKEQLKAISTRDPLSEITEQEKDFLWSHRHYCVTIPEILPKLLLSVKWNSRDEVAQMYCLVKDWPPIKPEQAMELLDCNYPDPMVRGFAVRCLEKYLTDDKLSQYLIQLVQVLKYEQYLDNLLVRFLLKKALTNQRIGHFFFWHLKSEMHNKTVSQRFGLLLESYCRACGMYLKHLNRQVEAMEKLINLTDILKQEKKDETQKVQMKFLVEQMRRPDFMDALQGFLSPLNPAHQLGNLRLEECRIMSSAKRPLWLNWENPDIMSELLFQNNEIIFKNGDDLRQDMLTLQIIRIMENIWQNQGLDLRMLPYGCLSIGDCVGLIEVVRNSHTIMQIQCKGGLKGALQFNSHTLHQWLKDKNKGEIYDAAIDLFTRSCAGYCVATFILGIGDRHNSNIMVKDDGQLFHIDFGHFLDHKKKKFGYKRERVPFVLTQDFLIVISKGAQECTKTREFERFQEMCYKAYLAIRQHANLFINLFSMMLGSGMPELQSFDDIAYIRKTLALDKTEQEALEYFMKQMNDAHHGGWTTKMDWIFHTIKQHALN
inhibition [1] [%],IC50 (Ramos) [µM],IC50 (Raji [2]) [µM],IC50 [3] [µM],Structure (SMILES),further results
33.1,10.1,,,C=CC(=O)Nc1cccc(Oc2ncnc3ccc(-c4ccc(Cl)nc4)cc23)c1,
,> 50,3.5,0.117,C=CC(=O)Nc1cccc(Nc2ncnc3ccc(-c4cnc5ccccc5c4)cc23)c1,
46.6,,> 50,,C=CC(=O)Nc1cccc(Nc2ncnc3ccc(-c4ccc(F)nc4)cc23)c1,
29.5,10.6,8.6,,C=CC(=O)Nc1cccc(Oc2ncnc3ccc(-c4cnc5ccccc5c4)cc23)c1,
41.8,9.4,14.8,,C=CC(=O)Nc1cccc(Oc2ncnc3ccc(-c4cccnc4)cc23)c1,
66.3,0.6,0.3,,Cn1c(=O)n(-c2ccc(C(C)(C)C#N)cc2)c2c3cc(-c4cnc5ccccc5c4)ccc3ncc21 [DACTOLISIB],Activity (Raji [4]): 10.24%
,5,2.7,0.129,C/C=C/C(=O)Nc1cccc(Nc2ncnc3ccc(-c4cnc5ccccc5c4)cc23)c1,
,,,0.021,CCC(=O)Nc1cccc(Nc2ncnc3ccc(-c4cnc5ccccc5c4)cc23)c1,
,5.4,8.5,0.0275,C=CC(=O)Nc1cc(Nc2ncnc3ccc(-c4cnc5ccccc5c4)cc23)ccc1C,IC50 [5]: 1.25 µM; Ratio IC50 (Homo sapiens [6]): 300; Ratio IC50 (Homo sapiens [7]): 20; Activity (Raji [8]): >50%; Activity (Raji [4]): 10.78%; inhibition (Raji [9]): Dose-dependent effect; Activity (Raji [10]): Dose-dependent effect; IC50 [11]: 0.561 µM; Stabilty [12]: Unstable; Ratio IC50 (Homo sapiens [13]): 45; Activity (Raji [14]): Tde; Stabilty [15]: Unstable; IC50 [16]: 19.6 µM
,17,0.9,0.495,C=CC(=O)N1CCc2ccc(Nc3ncnc4ccc(-c5cnc6ccccc6c5)cc34)cc21,
,> 50,,0.41,CC#CC(=O)Nc1cccc(Nc2ncnc3ccc(-c4cnc5ccccc5c4)cc23)c1,
23.4,11,11,,C=CC(=O)Nc1cccc(Oc2ncnc3ccc(-c4ccc(F)nc4)cc23)c1,
64.6,,11.6,0.104,C=CC(=O)Nc1cccc(Nc2ncnc3ccc(-c4ccc(Cl)nc4)cc23)c1,
